Assay results from publication PMC12251226, “Comparison of in silico predictions of action potential duration in response to inhibition of IKr and ICaL with new human ex vivo recordings” (PLOS Computational Biology, 2025).
pIC50: −log10 of the molar value. Like-named read-outs stand apart in the source and are kept apart here.

Assays:
[1] = tested on: adult human ventricular trabeculae; experiment: Ex vivo sharp electrode action potential recording (APD90) in ventricular trabeculae, 1 Hz pacing; conditions: for Mean ΔAPD90 (SEM): 25 min steady 1 Hz pacing; for Change in APD90 (in words): over the tested concentrations
hERG = conditions: cited from earlier work
CaV1.2 channels [2] = target: T1, CaV1.2 channels (Homo sapiens, UniProt Q13936); conditions: CaV1.2, CHO cells, Pharm protocol
CaV1.2 channels [3] = target: T1, CaV1.2 channels; conditions: CaV1.2, CHO cells, CiPA protocol
hERG (IKr) = hERG (IKr) (Homo sapiens, UniProt Q12809); experiment: Automated patch clamp, IKr Pharm (Roche in-house) protocol, CHO cells; conditions: human
hERG channels [4] = target: T2, hERG channels (Homo sapiens, UniProt Q12809); experiment: Automated patch clamp, IKr CiPA protocol, CHO cells; assay type: cell-based; set-up: expressed in transfected cells; host or cells: CHO (crelox)
CaV1.2 (ICaL) = CaV1.2 (ICaL) (Homo sapiens, UniProt Q13936); experiment: in vitro; conditions: CHO cells expressing human CaV1.2/β2/α2δ
hERG channels [5] = target: T2, hERG channels; experiment: Automated patch clamp, IKr Pharm (Roche in-house) protocol, CHO cells; conditions: hERG, CHO cells, Pharm protocol
CaV1.2 channels [6] = target: T1, CaV1.2 channels; experiment: cell-based
CaV1.2 channels [7] = target: T1, CaV1.2 channels; experiment: cell-based; remark: listed apart in the source

T2 sequence (Q12809 whole entry): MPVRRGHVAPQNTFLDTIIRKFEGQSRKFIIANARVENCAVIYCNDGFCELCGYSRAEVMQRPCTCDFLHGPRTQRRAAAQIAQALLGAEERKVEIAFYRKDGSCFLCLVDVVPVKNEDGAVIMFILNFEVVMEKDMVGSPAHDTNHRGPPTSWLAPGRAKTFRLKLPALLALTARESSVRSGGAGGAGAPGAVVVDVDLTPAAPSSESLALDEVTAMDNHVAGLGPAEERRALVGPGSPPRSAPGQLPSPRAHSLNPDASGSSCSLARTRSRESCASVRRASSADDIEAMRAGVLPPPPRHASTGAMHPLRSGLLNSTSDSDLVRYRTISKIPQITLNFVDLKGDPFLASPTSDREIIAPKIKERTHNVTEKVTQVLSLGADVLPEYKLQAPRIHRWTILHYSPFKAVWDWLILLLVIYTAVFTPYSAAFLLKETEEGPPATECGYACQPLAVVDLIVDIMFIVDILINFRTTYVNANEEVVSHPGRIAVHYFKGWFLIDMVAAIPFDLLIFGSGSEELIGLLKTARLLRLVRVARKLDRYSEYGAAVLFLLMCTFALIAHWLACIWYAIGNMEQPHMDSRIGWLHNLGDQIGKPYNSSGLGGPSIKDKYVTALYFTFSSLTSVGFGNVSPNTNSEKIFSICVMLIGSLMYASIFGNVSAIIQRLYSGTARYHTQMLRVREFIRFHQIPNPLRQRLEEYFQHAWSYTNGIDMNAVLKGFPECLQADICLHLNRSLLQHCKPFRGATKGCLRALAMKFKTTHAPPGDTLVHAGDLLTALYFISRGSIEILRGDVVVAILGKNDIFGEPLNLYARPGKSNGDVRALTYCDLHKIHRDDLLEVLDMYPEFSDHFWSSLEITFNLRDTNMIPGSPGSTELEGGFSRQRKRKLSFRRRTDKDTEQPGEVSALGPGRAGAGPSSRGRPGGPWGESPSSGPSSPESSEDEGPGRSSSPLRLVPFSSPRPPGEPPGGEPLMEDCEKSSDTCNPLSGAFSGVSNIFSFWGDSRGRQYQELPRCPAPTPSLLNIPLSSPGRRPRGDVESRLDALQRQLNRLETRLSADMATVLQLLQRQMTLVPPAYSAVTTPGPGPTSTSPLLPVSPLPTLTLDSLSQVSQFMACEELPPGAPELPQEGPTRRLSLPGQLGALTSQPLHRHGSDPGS
T1 sequence (Q13936 whole entry): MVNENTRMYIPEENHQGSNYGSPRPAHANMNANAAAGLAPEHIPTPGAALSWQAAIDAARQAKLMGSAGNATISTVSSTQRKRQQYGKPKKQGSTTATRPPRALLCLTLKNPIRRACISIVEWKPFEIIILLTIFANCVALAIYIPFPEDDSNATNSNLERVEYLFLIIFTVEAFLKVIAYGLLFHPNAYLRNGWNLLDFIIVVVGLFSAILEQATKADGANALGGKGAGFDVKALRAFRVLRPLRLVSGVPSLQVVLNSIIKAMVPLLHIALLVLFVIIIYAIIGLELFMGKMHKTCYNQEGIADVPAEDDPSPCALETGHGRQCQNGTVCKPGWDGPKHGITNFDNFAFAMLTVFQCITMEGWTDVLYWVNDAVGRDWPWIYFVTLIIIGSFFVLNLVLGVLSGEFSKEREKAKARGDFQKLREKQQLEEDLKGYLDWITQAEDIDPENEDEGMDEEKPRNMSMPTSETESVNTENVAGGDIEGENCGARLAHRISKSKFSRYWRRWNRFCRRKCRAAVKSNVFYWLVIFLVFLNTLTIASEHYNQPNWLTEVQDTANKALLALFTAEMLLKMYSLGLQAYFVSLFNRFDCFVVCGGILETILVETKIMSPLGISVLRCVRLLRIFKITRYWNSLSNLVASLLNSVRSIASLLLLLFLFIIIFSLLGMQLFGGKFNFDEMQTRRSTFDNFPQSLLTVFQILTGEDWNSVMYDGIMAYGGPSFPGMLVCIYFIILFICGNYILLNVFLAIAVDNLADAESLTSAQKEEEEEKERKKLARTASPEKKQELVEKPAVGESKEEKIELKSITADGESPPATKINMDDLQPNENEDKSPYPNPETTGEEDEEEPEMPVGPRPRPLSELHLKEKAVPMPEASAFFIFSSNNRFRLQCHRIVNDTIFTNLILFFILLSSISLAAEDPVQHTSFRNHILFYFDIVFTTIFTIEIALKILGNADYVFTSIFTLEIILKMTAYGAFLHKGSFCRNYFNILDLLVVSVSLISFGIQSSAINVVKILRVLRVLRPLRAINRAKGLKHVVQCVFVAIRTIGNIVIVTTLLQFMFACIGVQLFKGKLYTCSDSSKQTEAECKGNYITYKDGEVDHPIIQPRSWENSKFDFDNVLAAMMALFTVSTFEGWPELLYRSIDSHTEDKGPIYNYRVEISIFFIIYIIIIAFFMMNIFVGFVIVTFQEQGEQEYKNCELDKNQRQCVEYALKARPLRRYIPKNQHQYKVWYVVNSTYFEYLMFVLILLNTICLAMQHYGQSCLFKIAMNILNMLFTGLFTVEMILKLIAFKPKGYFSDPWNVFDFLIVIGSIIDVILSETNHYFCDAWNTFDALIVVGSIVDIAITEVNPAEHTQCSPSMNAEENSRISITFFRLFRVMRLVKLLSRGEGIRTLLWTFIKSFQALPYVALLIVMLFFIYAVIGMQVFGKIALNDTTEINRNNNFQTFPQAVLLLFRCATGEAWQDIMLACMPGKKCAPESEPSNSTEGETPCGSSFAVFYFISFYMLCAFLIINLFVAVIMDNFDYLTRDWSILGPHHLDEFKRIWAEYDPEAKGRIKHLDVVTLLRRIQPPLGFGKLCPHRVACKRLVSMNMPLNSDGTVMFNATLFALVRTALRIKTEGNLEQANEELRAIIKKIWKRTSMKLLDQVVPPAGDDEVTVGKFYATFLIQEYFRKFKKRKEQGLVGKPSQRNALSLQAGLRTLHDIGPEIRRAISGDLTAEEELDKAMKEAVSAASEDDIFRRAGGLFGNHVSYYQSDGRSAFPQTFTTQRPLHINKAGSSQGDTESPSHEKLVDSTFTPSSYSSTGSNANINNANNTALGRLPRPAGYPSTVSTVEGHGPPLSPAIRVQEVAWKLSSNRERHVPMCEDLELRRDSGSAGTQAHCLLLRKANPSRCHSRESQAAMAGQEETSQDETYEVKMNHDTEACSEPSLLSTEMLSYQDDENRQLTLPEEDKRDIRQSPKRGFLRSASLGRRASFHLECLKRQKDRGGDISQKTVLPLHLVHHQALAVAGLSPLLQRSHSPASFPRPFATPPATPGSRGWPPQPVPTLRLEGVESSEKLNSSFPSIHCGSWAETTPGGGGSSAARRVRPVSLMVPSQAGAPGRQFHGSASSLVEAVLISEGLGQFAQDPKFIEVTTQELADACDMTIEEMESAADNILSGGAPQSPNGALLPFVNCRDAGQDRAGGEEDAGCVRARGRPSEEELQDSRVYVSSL
T1 sequence (Q08289 whole entry partner): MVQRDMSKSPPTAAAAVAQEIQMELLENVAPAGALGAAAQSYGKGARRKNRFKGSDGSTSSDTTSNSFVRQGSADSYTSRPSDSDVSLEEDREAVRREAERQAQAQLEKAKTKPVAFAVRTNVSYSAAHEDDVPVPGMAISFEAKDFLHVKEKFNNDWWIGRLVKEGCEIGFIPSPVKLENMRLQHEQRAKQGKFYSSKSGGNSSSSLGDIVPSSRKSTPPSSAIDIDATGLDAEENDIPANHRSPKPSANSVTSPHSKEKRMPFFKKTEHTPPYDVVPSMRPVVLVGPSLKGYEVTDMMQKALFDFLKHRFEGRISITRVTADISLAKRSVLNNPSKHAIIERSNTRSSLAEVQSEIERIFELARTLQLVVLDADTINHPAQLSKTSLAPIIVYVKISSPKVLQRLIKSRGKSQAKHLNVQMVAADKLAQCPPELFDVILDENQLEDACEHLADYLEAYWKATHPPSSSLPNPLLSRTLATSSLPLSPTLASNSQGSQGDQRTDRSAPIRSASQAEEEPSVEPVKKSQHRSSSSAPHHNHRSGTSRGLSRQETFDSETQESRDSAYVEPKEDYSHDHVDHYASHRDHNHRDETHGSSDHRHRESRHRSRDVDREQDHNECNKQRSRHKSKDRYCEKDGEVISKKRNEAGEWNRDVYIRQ
T1 sequence (P54289 25-956 partner limits assumed): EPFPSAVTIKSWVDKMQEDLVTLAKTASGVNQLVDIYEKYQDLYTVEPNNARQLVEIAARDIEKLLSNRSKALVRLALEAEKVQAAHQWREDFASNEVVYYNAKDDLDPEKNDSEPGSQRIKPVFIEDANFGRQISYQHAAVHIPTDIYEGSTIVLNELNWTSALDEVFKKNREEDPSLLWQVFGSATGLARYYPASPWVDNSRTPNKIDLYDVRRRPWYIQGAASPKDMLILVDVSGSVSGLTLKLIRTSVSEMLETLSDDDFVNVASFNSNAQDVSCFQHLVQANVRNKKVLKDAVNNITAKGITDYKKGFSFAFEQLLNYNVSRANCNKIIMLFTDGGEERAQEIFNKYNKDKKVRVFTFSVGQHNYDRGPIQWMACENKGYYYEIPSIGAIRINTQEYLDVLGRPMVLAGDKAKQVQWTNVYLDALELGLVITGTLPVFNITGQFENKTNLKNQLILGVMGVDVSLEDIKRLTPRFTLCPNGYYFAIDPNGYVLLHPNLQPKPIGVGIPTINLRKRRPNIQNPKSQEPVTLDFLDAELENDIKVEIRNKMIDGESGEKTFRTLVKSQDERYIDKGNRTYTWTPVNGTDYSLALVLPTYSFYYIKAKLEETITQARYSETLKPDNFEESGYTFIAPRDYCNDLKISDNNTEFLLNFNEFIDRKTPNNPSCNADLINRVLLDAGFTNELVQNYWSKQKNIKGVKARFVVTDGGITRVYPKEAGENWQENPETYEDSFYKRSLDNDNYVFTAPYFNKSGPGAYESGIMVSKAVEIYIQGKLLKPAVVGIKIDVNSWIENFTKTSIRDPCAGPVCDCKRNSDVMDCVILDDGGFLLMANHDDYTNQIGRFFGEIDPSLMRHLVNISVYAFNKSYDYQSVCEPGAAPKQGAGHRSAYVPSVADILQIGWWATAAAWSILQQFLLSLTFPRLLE
T1 sequence (P54289 957-1103 partner limits assumed): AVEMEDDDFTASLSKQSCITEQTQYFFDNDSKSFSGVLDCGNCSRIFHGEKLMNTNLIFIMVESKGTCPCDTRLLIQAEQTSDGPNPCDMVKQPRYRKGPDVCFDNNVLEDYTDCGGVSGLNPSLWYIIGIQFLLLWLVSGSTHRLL

## COC(=O)C1=C(C)NC(C)=C(C(=O)OC)C1c1ccccc1[N+](=O)[O-] [Nifedipine]
[1]; nominal drug conc 0.03 μM
  Mean ΔAPD90 (SEM): –5 (6) ms
[1]; nominal drug conc 0.3 μM
  Mean ΔAPD90 (SEM): –24 (6) ms

## CNCCC(Oc1ccc(C(F)(F)F)cc1)c1ccccc1 (centres unmarked) [Fluoxetine]
CaV1.2 channels [2]
  ICaL Pharm Hill coefficient h: 0.94
CaV1.2 channels [3]
  ICaL CiPA Hill coefficient h: 0.90
[1]; nominal drug conc 3 μM
  Mean ΔAPD90 (SEM): –2 (5) ms
[1]
  Change in APD90 (in words): little or no change in APD90

## CN(C)CCCN1c2ccccc2Sc2ccc(Cl)cc21 [Chlorpromazine]
CaV1.2 channels [2]
  ICaL Pharm Hill coefficient h: 0.88
CaV1.2 channels [3]
  ICaL CiPA Hill coefficient h: 0.93
[1]
  Change in APD90 (in words): little or no change in APD90

## COc1ccc(CCN(C)CCCC(C#N)(c2ccc(OC)c(OC)c2)C(C)C)cc1OC (centres unmarked) [Verapamil]
[1]; nominal drug conc 0.01 μM
  Mean ΔAPD90 (SEM): –15 (4) ms
[1]; nominal drug conc 0.1 μM
  Mean ΔAPD90 (SEM): –19 (5) ms
[1]
  Change in APD90 (in words): substantially shortened APD90

## CN1CCN(C2=Nc3cc(Cl)ccc3Nc3ccccc32)CC1 [Clozapine]
hERG (IKr)
  inhibition at 3 µM: 57%
hERG channels [4]; human
  IKr CiPA Hill coefficient h: 0.94
CaV1.2 (ICaL)
  inhibition at 3 µM: 59%
[1]
  Change in APD90 (in words): little or no change in APD90

## CN1CCCCC1CCN1c2ccccc2Sc2ccc([S+](C)[O-])cc21 (centres unmarked) [Mesoridazine]
hERG channels [5]
  IKr Pharm Hill coefficient h: 1
CaV1.2 channels [2]
  ICaL Pharm Hill coefficient h: 0.76
CaV1.2 channels [6]
  pIC50: 5.39
CaV1.2 channels [7]
  pIC50: 5.40
CaV1.2 channels [3]
  ICaL CiPA Hill coefficient h: 0.83
hERG channels [4]; hERG, CHO cells, CiPA protocol
  IKr CiPA Hill coefficient h: 0.74
[1]; nominal drug conc 0.04 μM
  Mean ΔAPD90 (SEM): –2 (7) ms
[1]
  Change in APD90 (in words): little or no change in APD90
